Experimental data taken from patent USRE47689E1, “Compounds for treating spinal muscular atrophy” (PTC Therapeutics, Inc., priority 2011, dated 2019).
Read-outs that look alike come from different tables or passages of the source.

Key:
[1] = test system: SMN2 minigene (full length SMN2 minigene mRNA containing SMN2 exon 7); experiment: SMN2 minigene mRNA splicing RT-qPCR assay in cultured cells; assay type: cell-based, human; settings: Homo sapiens, HEK293-H, read-out: EC1.5x for production of full length SMN2 mRNA
Outline: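 Lysates → one-step RT-qPCR, minigene-specific primers (0.4 μM final) + GAPDH multiplex, 40 cycles. FL/GAPDH vs DMSO; EC1.5x, star-binned.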

Smn protein = Smn protein assay in cultured cells (SMN HTRF); assay type: cell-based, human; settings: 48 hours; for maximum fold (Fold) increase of Smn protein: SMA patient fibroblast cells, 7-point concentration data, fold increase relative to vehicle control (SMN HTRF); for EC1.5x (concentration giving 1.5-fold Smn protein increase): SMA Type 1 patient fibroblast cells (GM03813), 7-point concentration curve, SMN HTRF, concentration producing 1.5 times Smn protein vs DMSO vehicle control, read-out: EC1.5x for Smn protein expression
Outline: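 Smn in SMA fibroblast lysates, measured by anti-SMN HTRF after 48 h compound exposure; EC1.5x from fold change over vehicle.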

[2] = HEK293H cells stably transfected with SMN2-A minigene, 24 hours, 7-point concentration curve, 1.5-fold relative to vehicle-treated cells

SMILES	melting point [°C]	EC (1.5-fold) [1, 2] [µM]	maximum fold (Fold) increase of Smn protein (Smn protein)	EC1.5x (concentration giving 1.5-fold Smn protein increase) (Smn protein) [nM]	EC (1.5-fold) ([1]; 24 h) [µM]
Cc1cc(F)cn2cc(-c3cc4ccc(N5C[C@@H](C)N[C@@H](C)C5)cc4oc3=O)nc12 [Compound 331, 7-[(3R,5S)-3,5-dimethylpiperazin-1-yl]-3-(6-fluoro-8-methylimidazo[1,2-a]pyridin-2-yl)-2H-chromen-2-one]	290 to 300	0.3 to 1	* (maximum fold increase of ≤1.2)		
C[C@H]1CN(c2ccc3cc(-c4nc(C(F)(F)F)cs4)c(=O)oc3c2)CCN1 [Compound 239, 7-[(3S)-3-methylpiperazin-1-yl]-3-[4-(trifluoromethyl)-1,3-thiazol-2-yl]-2H-chromen-2-one]	234 to 238	1 to 3	* (maximum fold increase of ≤1.2)		
CC(CO)NCc1ccc2cc(-c3nc4c(Cl)cccc4s3)c(=O)oc2c1 (centres unmarked) [Compound 270, 3-(4-chloro-1,3-benzothiazol-2-yl)-7-{[(1-hydroxypropan-2-yl)amino]methyl}-2H-chromen-2-one]	186 to 190	1 to 3	** (fold increase between >1.2 and ≤1.35)		
C[C@H]1CN(c2ccc3cc(-c4cc5ccccc5s4)c(=O)oc3c2)CCN1 [Compound 410, 3-(1-benzothiophen-2-yl)-7-[(3S)-3-methylpiperazin-1-yl]-2H-chromen-2-one]	260 to 262	< 0.1	* (maximum fold increase of ≤1.2)		
O=c1oc2c(F)c(N3CCNCC3)ccc2cc1-c1ccccn1 [Compound 155, 8-fluoro-7-(piperazin-1-yl)-3-(pyridin-2-yl)-2H-chromen-2-one]	147 to 153		* (maximum fold increase of ≤1.2)		3 to 30
C[C@H]1CN(c2ccc3cc(-c4ccncc4)c(=O)oc3c2)CCN1 [Compound 549, 7-[(3S)-3-methylpiperazin-1-yl]-3-(pyridin-4-yl)-2H-chromen-2-one]	210 to 213		** (fold increase between >1.2 and ≤1.35)		1 to 3
Cc1ccn2cc(-c3cc4ccc(N5CCCN(C)CC5)cc4oc3=O)nc2n1 [Compound 227, 7-(4-methyl-1,4-diazepan-1-yl)-3-(7-methylimidazo[1,2-a]pyrimidin-2-yl)-2H-chromen-2-one]	232 to 236	0.1 to 0.3	*** (fold increase between >1.35 and ≤1.5)	3000 to 10000	
Cc1ccc2nc(-c3cc4ccc(CN5CCC(O)CC5)cc4oc3=O)cn2c1 [Compound 252, 7-[(4-hydroxypiperidin-1-yl)methyl]-3-(6-methylimidazo[1,2-a]pyridin-2-yl)-2H-chromen-2-one]	261 to 264	3 to 30	** (fold increase between >1.2 and ≤1.35)		
Cc1cc(F)c2nc(-c3cc4ccc(N5CC6CCC(C5)N6C)cc4oc3=O)cn2c1 [Compound 613, 3-(8-fluoro-6-methylimidazo[1,2-a]pyridin-2-yl)-7-(8-methyl-3,8-diazabicyclo[3.2.1]oct-3-yl)-2H-chromen-2-one]	267 to 274		** (fold increase between >1.2 and ≤1.35)		0.3 to 1
Cc1ccn2cc(-c3cc4ccc(N5CCN[C@@H](C)C5)cc4oc3=O)nc2n1 [Compound 229, 3-(7-methylimidazo[1,2-a]pyrimidin-2-yl)-7-[(3S)-3-methylpiperazin-1-yl]-2H-chromen-2-one]	298 to 301	0.1 to 0.3	*** (fold increase between >1.35 and ≤1.5)		
Cc1cnc2nc(-c3cc4ccc(N5CCN(C)CC5)cc4oc3=O)cn2c1 [Compound 242, 3-(6-methylimidazo[1,2-a]pyrimidin-2-yl)-7-(4-methylpiperazin-1-yl)-2H-chromen-2-one]	> 310	0.3 to 1	*** (fold increase between >1.35 and ≤1.5)		
COc1ccc(-c2cc3ccc(N4C[C@@H](C)N[C@@H](C)C4)cc3oc2=O)cc1OC [Compound 384, 3-(3,4-dimethoxyphenyl)-7-[(3R,5S)-3,5-dimethylpiperazin-1-yl]-2H-chromen-2-one]	130 to 132	3 to 30	* (maximum fold increase of ≤1.2)		

Further lines, with some results ahead:

melting point [°C]	SMILES	EC (1.5-fold) [1, 2] [µM]	maximum fold (Fold) increase of Smn protein (Smn protein)	EC1.5x (concentration giving 1.5-fold Smn protein increase) (Smn protein) [nM]	EC (1.5-fold) ([1]; 24 h) [µM]
233 to 236	Cc1nn2cc(-c3cc4ccc(N5CCN(C)CC5)cc4oc3=O)nc2s1 [Compound 442, 3-(2-methylimidazo[2,1-b][1,3,4]thiadiazol-6-yl)-7-(4-methylpiperazin-1-yl)-2H-chromen-2-one]	3 to 30	** (fold increase between >1.2 and ≤1.35)		
275 to 284	Cc1cc(F)c2nc(-c3cc4ccc(N5CCNC(C)(C)C5)cc4oc3=O)cn2c1 [Compound 426, 7-(3,3-dimethylpiperazin-1-yl)-3-(8-fluoro-6-methylimidazo[1,2-a]pyridin-2-yl)-2H-chromen-2-one]	0.1 to 0.3	*** (fold increase between >1.35 and ≤1.5)		
243 to 245	Cc1cc2cc(-c3cc4ccc(N5CCCN(C)CC5)cc4oc3=O)oc2c(C)n1 [Compound 775, 3-(5,7-dimethylfuro[2,3-c]pyridin-2-yl)-7-(4-methyl-1,4-diazepan-1-yl)-2H-chromen-2-one]	< 0.1	**** (fold increase between >1.5 and ≤1.65)	< 300	
210 to 213	Cc1nccn2cc(-c3cc4ccc(N5CCCNCC5)cc4oc3=O)cc12 [Compound 587, 7-(1,4-diazepan-1-yl)-3-(1-methylpyrrolo[1,2-a]pyrazin-7-yl)-2H-chromen-2-one]	< 0.1	**** (fold increase between >1.5 and ≤1.65)	< 300	
240 to 242	Cc1cn2cc(-c3cc4ccc(N5CCN(C(C)C)CC5)cc4oc3=O)nc2c(C)n1 [Compound 792, 3-(6,8-dimethylimidazo[1,2-a]pyrazin-2-yl)-7-[4-(propan-2-yl)piperazin-1-yl]-2H-chromen-2-one]	< 0.1	**** (fold increase between >1.5 and ≤1.65)	< 300	
249 to 250	Cc1cn2cc(-c3cc4ccc(N5C[C@@H](C)N[C@@H](C)C5)cc4oc3=O)nc2cn1 [Compound 476, 7-[(3R,5S)-3,5-dimethylpiperazin-1-yl]-3-(6-methylimidazo[1,2-a]pyrazin-2-yl)-2H-chromen-2-one]	< 0.1	***** (fold increase >1.65)	< 300	
150 to 152	Cc1cn2cc(-c3cc4ccc(N(C)C5CCN(Cc6ccccc6)C5)cc4oc3=O)nc2c(C)n1 (centres unmarked) [Compound 616, 7-[(1-benzylpyrrolidin-3-yl)(methyl)amino]-3-(6,8-dimethylimidazo[1,2-a]pyrazin-2-yl)-2H-chromen-2-one]	0.1 to 0.3	** (fold increase between >1.2 and ≤1.35)		
221 to 225	Cc1cn2cc(-c3cc4ccc(N5CCN(C(C)C)CC5)cc4oc3=O)cc2cn1 [Compound 692, 3-(3-methylpyrrolo[1,2-a]pyrazin-7-yl)-7-[4-(propan-2-yl)piperazin-1-yl]-2H-chromen-2-one]	< 0.1	**** (fold increase between >1.5 and ≤1.65)	< 300	
229 to 232	CN1CCCN(c2ccc3cc(-c4cn5cc(Cl)sc5n4)c(=O)oc3c2)CC1 [Compound 479, 3-(2-chloroimidazo[2,1-b][1,3]thiazol-6-yl)-7-(4-methyl-1,4-diazepan-1-yl)-2H-chromen-2-one]	0.3 to 1	* (maximum fold increase of ≤1.2)		
242 to 255	CCN1CCN(c2ccc3cc(-c4cn5cc(C)ncc5n4)c(=O)oc3c2)CC1 [Compound 622, 7-(4-ethylpiperazin-1-yl)-3-(6-methylimidazo[1,2-a]pyrazin-2-yl)-2H-chromen-2-one]	< 0.1	**** (fold increase between >1.5 and ≤1.65)	< 300	
206 to 210	Cc1nn2cc(-c3cc4ccc(N5CCN[C@H](C)C5)cc4oc3=O)nc2s1 [Compound 483, 3-(2-methylimidazo[2,1-b][1,3,4]thiadiazol-6-yl)-7-[(3R)-3-methylpiperazin-1-yl]-2H-chromen-2-one]	0.1 to 0.3	*** (fold increase between >1.35 and ≤1.5)	1000 to 3000	
